The source of these data is patent EP4667483A1, “HUMAN TRANSFERRIN RECEPTOR-BINDING PEPTIDE” (JCR Pharmaceuticals Co., Ltd., priority 2023, dated 2024).

Molecules are shown by their SMILES. Numbered stars: 1 amine (or outer) side, 2 acyl side, 3 side chain; on linkers, the order of the positions; unused ones are H or OH. Bridge positions count the residues as written; N and C are the ends. Square brackets hold non-standard residues; d marks the D form. Peptide text beside a SMILES is read from it. * marks the point of attachment. Trp(1-CH2COOH) = N[C@@H](Cc1cn(CC(=O)O)c2ccccc12)C(=O)O; CH2CON(CH2CH2)2NCH2COOH = O=C(O)CN1CCN(C(=O)C*)CC1; NMePhe(4-COOH) = CN[C@@H](Cc1ccc(C(=O)O)cc1)C(=O)O; Nle(6-morpholino) = N[C@@H](CCCCN1CCOCC1)C(=O)O; Phe(3-COOH) = N[C@@H](Cc1cccc(C(=O)O)c1)C(=O)O; NH(CH2CH2O)8Me = COCCOCCOCCOCCOCCOCCOCCOCCN*; NMePhe(3-Cl) = CN[C@@H](Cc1cccc(Cl)c1)C(=O)O; 3Pal(6-NH2) = Nc1ccc(C[C@H](N)C(=O)O)cn1; NMeW = CN[C@@H](Cc1c[nH]c2ccccc12)C(=O)O; X3 = Cc1ccc(C[C@H](N[*:1])C(=O)[*:2])cn1; NMe4Pal = CN[C@@H](Cc1ccncc1)C(=O)O; NMeY = CN[C@@H](Cc1ccc(O)cc1)C(=O)O; Nva(3-Et) = CCC(CC)[C@H](N)C(=O)O; NMeF = CN[C@@H](Cc1ccccc1)C(=O)O; 4Pal = N[C@@H](Cc1ccncc1)C(=O)O; PEG4 = NCCOCCOCCOCCOCCC(=O)O; Carboxymethyl = O=C(O)C*

The target in assay [1] is T1, human transferrin receptor (hTfR) (Homo sapiens, UniProt P02786). The assay can be described thus: SPR measurement under pH 7.4 conditions (Biacore T200, CM3 chip, hTfR captured by His Tag antibody). To be noted: read-out: hTfR SPR pH7.4 KD. The assay is classed as binding. For orientation: In SPR one partner is held on a chip, and binding of the other changes the refractive index at the surface.

Assay [2] concerns the target T1, human transferrin receptor (hTfR). The assay can be described thus: SPR measurement under pH 6.0 conditions (Biacore T200, NTA chip, immobilized hTfR). The assay is classed as binding. The conditions noted are these: read-out: hTfR SPR pH6.0 KD.
[3] abbreviates: SPR, pH 7.4, peptide with the linker named in the table.
Where [4] appears, read: SPR, pH 6.0, peptide with the linker named in the table.

One may read the Kd as a measure of binding affinity in units of concentration.

T1 sequence (P02786 whole entry): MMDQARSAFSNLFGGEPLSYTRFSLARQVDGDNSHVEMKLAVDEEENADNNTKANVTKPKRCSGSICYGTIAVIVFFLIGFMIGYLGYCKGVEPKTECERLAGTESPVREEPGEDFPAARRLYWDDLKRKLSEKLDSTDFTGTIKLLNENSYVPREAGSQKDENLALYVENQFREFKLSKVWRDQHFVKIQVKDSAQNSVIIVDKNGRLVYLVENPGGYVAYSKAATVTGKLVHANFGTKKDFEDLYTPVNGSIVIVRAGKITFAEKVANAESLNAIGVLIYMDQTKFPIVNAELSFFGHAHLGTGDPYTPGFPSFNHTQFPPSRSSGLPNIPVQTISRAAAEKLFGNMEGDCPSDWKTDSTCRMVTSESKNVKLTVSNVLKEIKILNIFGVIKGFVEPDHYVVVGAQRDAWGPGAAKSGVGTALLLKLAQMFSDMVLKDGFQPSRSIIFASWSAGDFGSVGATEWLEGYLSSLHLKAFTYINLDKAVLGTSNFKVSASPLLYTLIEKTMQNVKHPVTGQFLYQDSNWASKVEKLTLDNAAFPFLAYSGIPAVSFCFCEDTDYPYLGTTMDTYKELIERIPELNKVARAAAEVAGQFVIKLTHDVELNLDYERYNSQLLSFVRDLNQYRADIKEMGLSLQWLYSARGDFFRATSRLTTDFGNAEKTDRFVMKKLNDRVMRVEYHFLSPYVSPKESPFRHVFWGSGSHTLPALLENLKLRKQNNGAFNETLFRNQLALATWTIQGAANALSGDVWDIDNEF

Take `CC[C@H](C)[C@@H]1NC(=O)[C@H](Cc2ccc(OC)cc2)NC(=O)[C@H](Cc2ccc(O)cc2)NC(=O)[C@H](CC(N)=O)NC(=O)[C@H](Cc2c[nH]c3ccccc23)N(C)C(=O)[C@H](C(C)C)NC(=O)[C@H](Cc2cccc(Cl)c2)N(C)C(=O)[C@H](C(C)C)NC(=O)[C@H](C)NC(=O)CSC[C@@H](C(=O)NCCOCCOCCOCCOCCC(N)=O)NC(=O)[C@H](Cc2ccc(C(=O)NCCOCCOCCOCCOCCC(=O)O)cc2)N(C)C(=O)[C@H](Cc2cccc(C(=O)O)c2)NC(=O)[C@H](CCCNC(=N)N)NC(=O)[C@H](CCCCN)NC(=O)[C@H]([C@@H](C)CC)NC1=O` [compound 180] ({CH2CO}-AV[NMePhe(3-Cl)]V[NMeW]NYY(Me)IIKR[Phe(3-COOH)][NMePhe(4-COOH)](PEG4)C[PEG4]-NH2; thioether N-15): the dissociation constant (Kd) in assay [1] (pH 7.4, single-cycle kinetics) stood at 0.229 nM; in assay [2] (pH 6.0, single-cycle kinetics), 0.957 nM.

Take `CCC(CC)[C@@H]1NC(=O)[C@H](Cc2ccc(OCC(=O)O)cc2)NC(=O)[C@H](Cc2ccc(O)cc2)NC(=O)[C@H](CC(N)=O)NC(=O)[C@H](Cc2cn(CC(=O)O)c3ccccc23)NC(=O)[C@H](C(C)C)NC(=O)[C@H](Cc2cccc(Cl)c2)N(C)C(=O)[C@H](C(C)C)NC(=O)[C@H](C)NC(=O)CSC[C@@H](C(=O)NCCOCCOCCOCCOCCC(N)=O)NC(=O)[C@H](Cc2cccc(Cl)c2)N(C)C(=O)[C@H](Cc2cccc(C(=O)O)c2)NC(=O)[C@H](CCCNC(=N)N)NC(=O)[C@H](CCC(N)=O)NC(=O)[C@H]([C@@H](C)CC)NC1=O` [compound 94] ({CH2CO}-AV[NMePhe(3-Cl)]V[Trp(1-CH2COOH)]NYY(Carboxymethyl)[Nva(3-Et)]IQR[Phe(3-COOH)][NMePhe(3-Cl)]C[PEG4]-NH2; thioether N-15): the Kd in assay [1] (setting [3]) came to 12 nM; in assay [2] (setting [4]), 62 nM.

`CCC(CC)[C@@H]1NC(=O)[C@H](Cc2ccc(OCC(=O)O)cc2)NC(=O)[C@H](Cc2ccc(N)nc2)NC(=O)[C@H](CC(N)=O)NC(=O)[C@H](Cc2cn(CC(=O)O)c3ccccc23)NC(=O)[C@H](C(C)C)NC(=O)[C@H](Cc2cccc(Cl)c2)N(C)C(=O)[C@H](C(C)C)NC(=O)[C@H](C)NC(=O)CSC[C@@H](C(=O)NCCOCCOCCOCCOCCC(N)=O)NC(=O)[C@H](Cc2ccc(C(=O)O)cc2)N(C)C(=O)[C@H](Cc2ccncc2)NC(=O)[C@H](CCCCN2CCOCC2)NC(=O)[C@H](CCC(N)=O)NC(=O)[C@H]([C@@H](C)CC)NC1=O` [compound 49] ({CH2CO}-AV[NMePhe(3-Cl)]V[Trp(1-CH2COOH)]N[3Pal(6-NH2)]Y(Carboxymethyl)[Nva(3-Et)]IQ[Nle(6-morpholino)][4Pal][NMePhe(4-COOH)]C[PEG4]-NH2; thioether N-15): the Kd stood at 15800 nM in assay [1] (pH 7.4, single-cycle kinetics) and 576 nM in assay [2] (pH 6.0, single-cycle kinetics).

For `CC[C@H](C)[C@@H]1NC(=O)[C@H](Cc2ccc(OCC(=O)N3CCN(CC(=O)O)CC3)cc2)NC(=O)[C@H](Cc2ccc(O)cc2)NC(=O)[C@H](CC(N)=O)NC(=O)[C@H](Cc2cn(CC(=O)O)c3ccccc23)NC(=O)[C@H](C(C)C)NC(=O)[C@H](Cc2cccc(Cl)c2)N(C)C(=O)[C@H](C(C)C)NC(=O)[C@H](C)NC(=O)CSC[C@@H](C(=O)NCCOCCOCCOCCOCCC(N)=O)NC(=O)[C@H](Cc2ccc(O)cc2)N(C)C(=O)[C@H](Cc2cccc(C(=O)O)c2)NC(=O)[C@H](CCCCN2CCOCC2)NC(=O)[C@H](CCCCN2CCOCC2)NC(=O)[C@H]([C@@H](C)CC)NC1=O` [compound 32] ({CH2CO}-AV[NMePhe(3-Cl)]V[Trp(1-CH2COOH)]NYY(CH2CON(CH2CH2)2NCH2COOH)II[Nle(6-morpholino)][Nle(6-morpholino)][Phe(3-COOH)][NMeY]C[PEG4]-NH2; thioether N-15), the dissociation constant Kd in assay [1] (pH 7.4, single-cycle kinetics) is 2.18 nM; in assay [2] (pH 6.0, single-cycle kinetics), 27 nM.

With `CC[C@H](C)[C@@H]1NC(=O)[C@H](Cc2ccc(OCC(=O)NC[C@H](O)[C@@H](O)[C@H](O)[C@H](O)CO)cc2)NC(=O)[C@H](Cc2ccc(O)cc2)NC(=O)[C@H](CC(N)=O)NC(=O)[C@H](Cc2c[nH]c3ncccc23)NC(=O)[C@H](C(C)C)NC(=O)[C@H](Cc2cccc(Cl)c2)N(C)C(=O)[C@H](C(C)C)NC(=O)[C@H](C)NC(=O)CSC[C@@H](C(=O)NCCOCCOCCOCCOCCC(N)=O)NC(=O)[C@H](Cc2ccc(O)cc2)N(C)C(=O)[C@H](Cc2ccncc2)NC(=O)[C@H](CCCNC(=N)N)NC(=O)[C@H](CCC(=O)NC[C@H](O)[C@@H](O)[C@H](O)[C@H](O)CO)NC(=O)[C@H]([C@@H](C)CC)NC1=O` [compound 26], the Kd in assay [1] (pH 7.4, single-cycle kinetics) came out at 1.73 nM; in assay [2] (pH 6.0, single-cycle kinetics), 13.4 nM.

`CC[C@H](C)[C@@H]1NC(=O)[C@H](Cc2ccc(OCC(=O)O)cc2)NC(=O)[C@H](Cc2ccc(O)cc2)NC(=O)[C@H](CC(N)=O)NC(=O)[C@H](Cc2c[nH]c3ncccc23)NC(=O)[C@H](C(C)C)NC(=O)[C@H](Cc2cccc(Cl)c2)N(C)C(=O)[C@H](C(C)C)NC(=O)[C@H](C)NC(=O)CSC[C@@H](C(=O)NCCOCCOCCOCCOCCC(N)=O)NC(=O)[C@H](Cc2ccc(O)cc2)N(C)C(=O)[C@H](Cc2ccncc2)NC(=O)[C@H](CCCNC(=N)N)NC(=O)[C@H](CCC(=O)NCCOCCOCCOCCOCCC(=O)O)NC(=O)[C@H]([C@@H](C)CC)NC1=O` [compound 63]: the dissociation constant (Kd) in assay [1] (pH 7.4, single-cycle kinetics) was 23.6 nM; in assay [2] (pH 6.0, single-cycle kinetics), 87.7 nM.

`CC[C@H](C)[C@@H]1NC(=O)[C@H](Cc2ccc(OCC(=O)N3CCN(CC(=O)O)CC3)cc2)NC(=O)[C@H](Cc2ccc(O)cc2)NC(=O)[C@H](CC(N)=O)NC(=O)[C@H](Cc2cn(CC(=O)O)c3ccccc23)NC(=O)[C@H](C(C)C)NC(=O)[C@H](Cc2cccc(Cl)c2)N(C)C(=O)[C@H](C(C)C)NC(=O)[C@H](C)NC(=O)CSC[C@@H](C(=O)NCCOCCOCCOCCOCCC(N)=O)NC(=O)[C@H](Cc2ccc(O)cc2)N(C)C(=O)[C@H](Cc2ccccc2)NC(=O)[C@H](CCCCN2CCOCC2)NC(=O)[C@H](CCC(=O)NCCOCCOCCOCCOCCOCCOCCOCCOC)NC(=O)[C@H]([C@@H](C)CC)NC1=O` [compound 30] ({CH2CO}-AV[NMePhe(3-Cl)]V[Trp(1-CH2COOH)]NYY(CH2CON(CH2CH2)2NCH2COOH)IIE(NH(CH2CH2O)8Me)[Nle(6-morpholino)]F[NMeY]C[PEG4]-NH2; thioether N-15): the equilibrium dissociation constant (Kd) turned out to be 10.2 nM in assay [1] (pH 7.4, single-cycle kinetics) and 95.6 nM in assay [2] (pH 6.0, single-cycle kinetics).

For `CCC(CC)[C@@H]1NC(=O)[C@H](Cc2ccc(O)cc2)NC(=O)[C@H](Cc2ccc(N)nc2)NC(=O)[C@H](CC(N)=O)NC(=O)[C@H](Cc2c[nH]c3ccccc23)N(C)C(=O)[C@H](C(C)C)NC(=O)[C@H](Cc2ccccc2)N(C)C(=O)[C@H](C(C)C)NC(=O)[C@H](C)NC(=O)CSC[C@@H](C(=O)NCCOCCOCCOCCOCCC(N)=O)NC(=O)[C@H](Cc2ccc(O)cc2)N(C)C(=O)[C@H](Cc2ccc(O)cc2)NC(=O)[C@H](CCCNC(=N)N)NC(=O)[C@H](CCCCN)NC(=O)[C@H]([C@@H](C)CC)NC1=O` [compound 133] ({CH2CO}-AV[NMeF]V[NMeW]N[3Pal(6-NH2)]Y[Nva(3-Et)]IKRY[NMeY]C[PEG4]-NH2; thioether N-15), the values for the dissociation constant Kd in assay [1] (setting [3]) and in assay [2] (setting [4]) were 16.5 nM and 20.2 nM, respectively.

For `CC[C@H](C)[C@@H]1NC(=O)[C@H](Cc2ccc(OC)cc2)NC(=O)[C@H](Cc2ccc(N)nc2)NC(=O)[C@H](CC(N)=O)NC(=O)[C@H](Cc2cnc3ccccn23)NC(=O)[C@H](C(C)C)NC(=O)[C@H](Cc2cccc(Cl)c2)N(C)C(=O)[C@H](C(C)C)NC(=O)[C@H](C)NC(=O)CSC[C@@H](C(=O)NCC(=O)N[C@H](CCC(=O)O)C(=O)N[C@H](CCC(=O)O)C(=O)N[C@H](CCC(=O)O)C(=O)N[C@H](CO)C(=O)N[C@H](CO)C(=O)N[C@@H](CCCCN=[N+]=[N-])C(N)=O)NC(=O)[C@H](Cc2ccc(O)cc2)N(C)C(=O)[C@H](Cc2ccncc2)NC(=O)[C@H](CCCNC(=N)N)NC(=O)[C@H](CCCNC(=N)N)NC(=O)[C@H]([C@@H](C)CC)NC1=O` [compound 185], the equilibrium dissociation constant (Kd) in assay [1] (SPR, pH 7.4, Table 1-3-2-2) worked out at 28.7 nM; in assay [2] (SPR, pH 6.0, Table 1-3-2-2), 381 nM.

With `CCC(CC)[C@@H]1NC(=O)[C@H](Cc2ccc(OCC(=O)O)cc2)NC(=O)[C@H](Cc2ccc(O)cc2)NC(=O)[C@H](CC(N)=O)NC(=O)[C@H](Cc2cn(CC(=O)O)c3ccccc23)NC(=O)[C@H](C(C)C)NC(=O)[C@H](Cc2cccc(Cl)c2)N(C)C(=O)[C@H](C(C)C)NC(=O)[C@H](C)NC(=O)CSC[C@@H](C(=O)NCCOCCOCCOCCOCCC(N)=O)NC(=O)[C@H](Cc2ccncc2)N(C)C(=O)[C@H](Cc2cccc(C(=O)O)c2)NC(=O)[C@H](CCCNC(=N)N)NC(=O)[C@H](CCC(N)=O)NC(=O)[C@H]([C@@H](C)CC)NC1=O` [compound 96] ({CH2CO}-AV[NMePhe(3-Cl)]V[Trp(1-CH2COOH)]NYY(Carboxymethyl)[Nva(3-Et)]IQR[Phe(3-COOH)][NMe4Pal]C[PEG4]-NH2; thioether N-15), the equilibrium dissociation constant (Kd) came to 18.2 nM in assay [1] (setting [3]) and 91.9 nM in assay [2] (setting [4]).

As for `CCC(CC)[C@@H]1NC(=O)[C@H](Cc2ccc(OCC(=O)O)cc2)NC(=O)[C@H](Cc2ccc(O)cc2)NC(=O)[C@H](CC(N)=O)NC(=O)[C@H](Cc2cn(CC(=O)O)c3ccccc23)NC(=O)[C@H](C(C)C)NC(=O)[C@H](Cc2cccc(Cl)c2)N(C)C(=O)[C@H](C(C)C)NC(=O)[C@H](C)NC(=O)CSC[C@@H](C(=O)NCCOCCOCCOCCOCCC(N)=O)NC(=O)[C@H](Cc2ccc(O)cc2)N(C)C(=O)[C@H](Cc2ccc(C)nc2)NC(=O)[C@H](CCCNC(=N)N)NC(=O)[C@H](CCC(N)=O)NC(=O)[C@H]([C@@H](C)CC)NC1=O` [compound 100] ({CH2CO}-AV[NMePhe(3-Cl)]V[Trp(1-CH2COOH)]NYY(Carboxymethyl)[Nva(3-Et)]IQR[X3][NMeY]C[PEG4]-NH2; thioether N-15), the figures for the Kd in assay [1] (setting [3]) and in assay [2] (setting [4]) were 12.7 nM and 113 nM, respectively.
